Key:
Format in all cases: binding
Settings in all cases: Compound Concentration 10 µM
[1] = biological target: T1, panel of 442 kinases (Homo sapiens, UniProt Q99640)
T1 construct: purchased KINOMEscan
T1 sequence (Q99640 1-499): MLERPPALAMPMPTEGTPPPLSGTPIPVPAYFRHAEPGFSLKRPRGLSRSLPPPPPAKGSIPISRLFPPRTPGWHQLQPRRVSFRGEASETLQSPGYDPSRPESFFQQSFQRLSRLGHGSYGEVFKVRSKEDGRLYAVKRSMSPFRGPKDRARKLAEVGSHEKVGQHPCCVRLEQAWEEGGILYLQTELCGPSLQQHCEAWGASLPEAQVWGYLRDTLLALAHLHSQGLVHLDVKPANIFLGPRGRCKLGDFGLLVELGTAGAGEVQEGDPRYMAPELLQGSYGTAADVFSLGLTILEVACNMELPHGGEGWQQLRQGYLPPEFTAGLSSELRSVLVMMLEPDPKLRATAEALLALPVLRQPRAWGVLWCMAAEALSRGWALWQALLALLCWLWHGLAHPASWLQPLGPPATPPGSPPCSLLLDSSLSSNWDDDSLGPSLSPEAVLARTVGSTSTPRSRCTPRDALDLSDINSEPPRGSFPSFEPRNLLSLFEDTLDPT
Source text: (§1) We assessed the selectivity of members of this scaffold using the KINOMEscan methodology across a near comprehensive panel of 442 kinases [[18,27]].

[2] = biological target: T2, panel of 442 kinases (Plasmodium falciparum, UniProt P62344)
T2 construct: purchased KINOMEscan
T2 sequence (P62344 whole entry): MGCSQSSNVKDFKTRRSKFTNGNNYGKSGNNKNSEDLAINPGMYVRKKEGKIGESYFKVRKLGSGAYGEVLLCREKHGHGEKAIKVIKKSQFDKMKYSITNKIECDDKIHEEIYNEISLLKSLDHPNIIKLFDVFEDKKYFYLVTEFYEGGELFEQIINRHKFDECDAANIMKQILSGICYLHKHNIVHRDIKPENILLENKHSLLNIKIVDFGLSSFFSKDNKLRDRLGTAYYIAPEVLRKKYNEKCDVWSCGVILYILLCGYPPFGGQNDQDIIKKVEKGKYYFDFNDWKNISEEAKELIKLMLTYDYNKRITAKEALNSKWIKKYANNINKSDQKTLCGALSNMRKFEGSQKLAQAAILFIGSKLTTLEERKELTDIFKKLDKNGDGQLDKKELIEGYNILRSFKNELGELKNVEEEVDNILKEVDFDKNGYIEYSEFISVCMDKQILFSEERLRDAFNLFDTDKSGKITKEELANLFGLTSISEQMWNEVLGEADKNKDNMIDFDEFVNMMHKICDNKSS
Source text: as §1

[3] = biological target: T3, panel of 442 kinases (Homo sapiens, UniProt P51956)
T3 construct: purchased KINOMEscan
T3 sequence (P51956 1-506): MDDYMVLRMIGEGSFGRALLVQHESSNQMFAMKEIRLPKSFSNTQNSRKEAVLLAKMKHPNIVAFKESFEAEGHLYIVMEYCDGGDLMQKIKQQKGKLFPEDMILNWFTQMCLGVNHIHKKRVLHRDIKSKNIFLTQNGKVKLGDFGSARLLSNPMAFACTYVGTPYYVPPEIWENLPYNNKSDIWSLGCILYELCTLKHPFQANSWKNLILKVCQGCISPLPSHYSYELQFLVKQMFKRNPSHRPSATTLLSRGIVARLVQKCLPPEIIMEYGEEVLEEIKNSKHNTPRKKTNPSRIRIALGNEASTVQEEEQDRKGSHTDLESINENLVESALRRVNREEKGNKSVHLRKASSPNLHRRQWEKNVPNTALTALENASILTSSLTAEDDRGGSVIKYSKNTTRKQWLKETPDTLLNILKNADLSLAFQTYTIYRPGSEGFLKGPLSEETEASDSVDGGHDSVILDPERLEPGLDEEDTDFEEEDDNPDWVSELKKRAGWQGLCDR
Source text: as §1

Structure (SMILES)	KINOMEscan: PKMYT1 [1]	KINOMEscan: PFCDPK1(P.falciparum) [2]	KINOMEscan: NEK3 [3]
CCOc1cc(C(=O)N2CCC(N3CCN(C)CC3)CC2)ccc1Nc1ncc2c(n1)N(C1CCCC1)c1ccccc1C(=O)N2C [Compound 26]	100	100	83
COc1cc(C(=O)N2CCC(N3CCN(C)CC3)CC2)ccc1Nc1ncc2c(n1)N1CCc3cccc(c31)C(=O)N2C [Compound 24]	70		
COc1cc(C(=O)N2CCC(N3CCN(C)CC3)CC2)ccc1Nc1ncc2c(n1)N(C)c1ccccc1C(=O)N2C [15 (LRRK2-IN-1)]	80	100	100
COc1cc(C(=O)N2CCC(N3CCN(C)CC3)CC2)ccc1Nc1ncc2c(n1)N(C1CCCC1)c1ccccc1C(=O)N2C [Compound 25, 11-cyclopentyl-2-((2-methoxy-4-(4-(4-methylpiperazin-1-yl)piperidine-1-carbonyl)phenyl)amino)-5-methyl-5H-benzo[e]pyrimido[5,4-b][1,4]diazepin-6(11H)-one]	100	91	100

— article PMC3914206
